This passage reports Ki and IC50 results from ChEMBL document CHEMBL1151085, “Design, synthesis and SAR of RGD peptide hybrids as highly efficient inhibitors of platelet aggregation” (Bioorg Med Chem Lett, 1995).

In one assay the target is Integrin alpha-IIb/beta-3 (Homo sapiens, UniProt P05106+P08514). Briefly: Displacement of [3H]SKF-107260 from alpha IIb beta3 integrin. Type of assay: protein-complex assay.
Integrin alpha-IIb/beta-3, sequence (P05106 27-788 limits assumed): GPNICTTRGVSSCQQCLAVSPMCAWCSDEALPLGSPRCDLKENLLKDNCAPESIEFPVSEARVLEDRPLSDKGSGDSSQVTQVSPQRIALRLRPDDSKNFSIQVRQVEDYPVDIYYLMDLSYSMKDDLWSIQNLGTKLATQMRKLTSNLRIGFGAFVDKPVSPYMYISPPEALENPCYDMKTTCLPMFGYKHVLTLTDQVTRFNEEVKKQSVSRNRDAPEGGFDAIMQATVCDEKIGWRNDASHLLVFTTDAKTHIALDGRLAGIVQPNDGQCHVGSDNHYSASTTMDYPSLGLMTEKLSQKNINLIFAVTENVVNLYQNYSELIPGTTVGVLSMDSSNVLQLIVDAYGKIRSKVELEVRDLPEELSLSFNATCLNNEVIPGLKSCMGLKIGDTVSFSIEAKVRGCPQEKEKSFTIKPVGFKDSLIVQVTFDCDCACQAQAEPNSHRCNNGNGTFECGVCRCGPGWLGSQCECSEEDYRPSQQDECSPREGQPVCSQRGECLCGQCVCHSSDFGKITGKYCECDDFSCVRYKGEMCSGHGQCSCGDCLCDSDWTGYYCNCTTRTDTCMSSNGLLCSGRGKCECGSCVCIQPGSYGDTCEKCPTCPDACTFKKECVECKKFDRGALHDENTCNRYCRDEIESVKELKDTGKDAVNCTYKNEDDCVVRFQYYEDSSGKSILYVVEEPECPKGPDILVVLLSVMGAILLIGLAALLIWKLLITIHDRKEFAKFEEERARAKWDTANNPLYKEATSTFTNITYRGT
Integrin alpha-IIb/beta-3, sequence (P08514 32-887 limits assumed): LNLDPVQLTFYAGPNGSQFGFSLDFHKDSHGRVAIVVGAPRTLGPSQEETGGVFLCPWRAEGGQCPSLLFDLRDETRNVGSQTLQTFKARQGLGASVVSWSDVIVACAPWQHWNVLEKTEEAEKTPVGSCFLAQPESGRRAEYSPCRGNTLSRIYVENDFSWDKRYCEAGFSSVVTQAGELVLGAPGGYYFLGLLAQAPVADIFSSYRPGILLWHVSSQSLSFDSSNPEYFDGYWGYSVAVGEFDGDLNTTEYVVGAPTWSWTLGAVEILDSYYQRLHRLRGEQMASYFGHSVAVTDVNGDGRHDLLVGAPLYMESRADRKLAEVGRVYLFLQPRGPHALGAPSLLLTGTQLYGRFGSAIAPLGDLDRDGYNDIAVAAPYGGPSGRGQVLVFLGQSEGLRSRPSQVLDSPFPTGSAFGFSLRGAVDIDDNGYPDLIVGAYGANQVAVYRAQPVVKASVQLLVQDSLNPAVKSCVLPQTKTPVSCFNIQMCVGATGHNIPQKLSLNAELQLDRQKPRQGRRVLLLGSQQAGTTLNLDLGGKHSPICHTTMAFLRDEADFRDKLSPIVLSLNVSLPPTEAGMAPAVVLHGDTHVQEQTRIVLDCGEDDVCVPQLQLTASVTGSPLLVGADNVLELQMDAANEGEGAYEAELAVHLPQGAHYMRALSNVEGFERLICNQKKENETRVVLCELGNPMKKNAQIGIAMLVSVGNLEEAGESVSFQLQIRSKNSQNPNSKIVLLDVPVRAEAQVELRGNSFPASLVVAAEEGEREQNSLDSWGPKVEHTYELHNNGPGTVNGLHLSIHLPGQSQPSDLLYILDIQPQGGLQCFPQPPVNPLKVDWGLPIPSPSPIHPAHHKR
Integrin alpha-IIb/beta-3, sequence (P08514 891-1039 limits assumed): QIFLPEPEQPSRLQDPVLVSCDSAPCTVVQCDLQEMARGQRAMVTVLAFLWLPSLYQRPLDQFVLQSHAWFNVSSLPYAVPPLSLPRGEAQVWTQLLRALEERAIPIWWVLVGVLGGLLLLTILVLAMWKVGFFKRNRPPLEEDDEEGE
For the molecule `N=C(N)c1ccc(C(=O)NCCC(=O)N[C@@H](CC(=O)O)C(=O)N[C@H](Cc2c[nH]c3ccccc23)C(=O)O)cc1` (single isomer, unassigned), the Ki is 2.3 nM. Regarding `N=C(N)c1ccc(C(=O)NCCC(=O)N[C@@H](CC(=O)O)C(=O)NC(Cc2ccc(O)cc2)C(=O)O)cc1` (single isomer, unassigned), the Ki is 2.1 nM.

The species entered for the next assay is Homo sapiens. Briefly: In vitro for its inhibitory activity against platelet aggregation induced by ADP. It is filed as functional.
`N=C(N)c1ccc(C(=O)NCCC(=O)N[C@@H](CC(=O)O)C(=O)N[C@@H](Cc2ccc(O)cc2)C(=O)O)cc1` yielded an IC50 of 1200 nM. As for `N=C(N)c1ccc(C(=O)NCCC(=O)N[C@@H](CC(=O)O)C(=O)N[C@H](Cc2ccc3ccccc3c2)C(=O)O)cc1`, the concentration for half-maximal inhibition (IC50) stood at 44 nM. With `N=C(N)c1ccc(C(=O)NCCC(=O)N[C@@H](CC(=O)O)C(=O)NC(Cc2ccc(F)cc2)C(=O)O)cc1` (single isomer, unassigned), half-maximal inhibition (IC50) was put at 47 nM. Still for that read-out and setting: next, `N=C(N)c1ccc(C(=O)NCCC(=O)N[C@@H](CC(=O)O)C(=O)N[C@H](Cc2c[nH]c3ccccc23)C(=O)O)cc1` (single isomer, unassigned): 26 nM; `N=C(N)Nc1ccc(C(=O)NCCC(=O)N[C@@H](CC(=O)O)C(=O)N[C@@H](Cc2ccccc2)C(=O)O)cc1`: 6100 nM. Still for that read-out and setting: under `N=C(N)Nc1ccc(C(=O)NCCC(=O)N[C@@H](CC(=O)O)C(=O)N[C@H](Cc2cccc3ccccc23)C(=O)O)cc1` stands 770 nM. `N=C(N)Nc1ccc(C(=O)NC(Cc2ccc(O)cc2)C(=O)N[C@@H](CC(=O)O)C(=O)N[C@H](Cc2c[nH]c3ccccc23)C(=O)O)cc1` (some centres undefined) displayed an IC50 greater than 50000 nM. Still for that read-out and setting: under `N=C(N)Nc1ccc(C(=O)NCCC(=O)N[C@@H](CC(=O)O)C(=O)N[C@H](Cc2ccc(O)cc2)C(=O)O)cc1` stands 190 nM; under `N=C(N)c1ccc(C(=O)NCCCC(=O)N[C@@H](CC(=O)O)C(=O)N[C@H](Cc2c[nH]c3ccccc23)C(=O)O)cc1`, greater than 50000 nM.

Regarding `N=C(N)Nc1ccc(C(=O)NCCC(=O)N[C@@H](CC(=O)O)C(=O)N[C@@H](C(=O)O)c2ccccc2)cc1`, 2900 nM corresponded to half-maximal inhibition (IC50). The same measure, in the same setting: under `N=C(N)Nc1ccc(C(=O)NCCC(=O)N[C@@H](CC(=O)O)C(=O)N[C@H](Cc2ccc3ccccc3c2)C(=O)O)cc1` stands 320 nM; under `N=C(N)Nc1ccc(C(=O)NCCCC(=O)N[C@@H](CC(=O)O)C(=O)N[C@H](Cc2c[nH]c3ccccc23)C(=O)O)cc1`, greater than 50000 nM; under `N=C(N)c1ccc(C(=O)NCCC(=O)N[C@@H](CC(=O)O)C(=O)NC(Cc2ccc(O)cc2)C(=O)O)cc1` (single isomer, unassigned), 20 nM. Same read-out and setting: under `N=C(N)NCc1ccc(C(=O)NCCC(=O)N[C@@H](CC(=O)O)C(=O)N[C@H](Cc2c[nH]c3ccccc23)C(=O)O)cc1` stands 710 nM; under `N=C(N)Nc1ccc(C(=O)NCCC(=O)N[C@@H](CC(=O)O)C(=O)N[C@H](Cc2c[nH]c3ccccc23)C(=O)O)cc1`, 70 nM.

For the molecule `N=C(N)Nc1ccc(C(=O)N2CCC(C(=O)N[C@@H](CC(=O)O)C(=O)N[C@H](Cc3c[nH]c4ccccc34)C(=O)O)CC2)cc1`, inhibition was half-maximal at 4600 nM (IC50). In turn, `N=C(N)Nc1ccc(C(=O)NCC(=O)N[C@@H](CC(=O)O)C(=O)N[C@H](Cc2c[nH]c3ccccc23)C(=O)O)cc1` returned an IC50 of 600 nM. Against the preceding molecule, the IC50 is about 7.7-fold lower. Take `N=C(N)Nc1ccc(C(=O)NCCC(=O)N[C@@H](CC(=O)O)C(=O)N[C@H](CC2CCCCC2)C(=O)O)cc1`: 88 nM corresponded to half-maximal inhibition (IC50).

As to `N=C(N)Nc1ccc(C(=O)NCCC(=O)N[C@@H](CC(=O)O)C(=O)N[C@H](Cc2ccc(F)cc2)C(=O)O)cc1`, the IC50 is 1700 nM. On the same count and under the same terms, under `N=C(N)Nc1ccc(C(=O)NCCC(=O)N[C@@H](CC(=O)O)C(=O)N[C@H](Cc2ccccc2)C(=O)O)cc1` stands 390 nM.

Target in another assay: not listed separately
Briefly: Displacement of [3H]SKF-107260 from […] integrin. The arrangement: species or system Homo sapiens.
As to `N=C(N)c1ccc(C(=O)NCCC(=O)N[C@@H](CC(=O)O)C(=O)N[C@H](Cc2c[nH]c3ccccc23)C(=O)O)cc1` (single isomer, unassigned), the affinity, expressed as Ki, was 35000 nM. Molecule `N=C(N)c1ccc(C(=O)NCCC(=O)N[C@@H](CC(=O)O)C(=O)NC(Cc2ccc(O)cc2)C(=O)O)cc1` (single isomer, unassigned) had a Ki of 75000 nM.
